Some results are limits rather than exact numbers.

The target of the assay is T1, Dipeptidyl Peptidase-IV (DPP-IV) (Homo sapiens, UniProt P27487).
T1 construct: made in house
The experiment in a line: Measurement of DPP-IV Activity-Inhibiting Ability (fluorescent substrate Ac-Gly-Pro-AFC). It counts as biochemical. The conditions noted are these: 25° C., 50 mmol HEPES (pH 7.4), DP-IV 7.1 nM, enzyme reaction for 1 hour. The text has this: Dipeptidyl Peptidase-IV (DPP-IV), known as serine protease, was obtained by a modification of the known method (Tanaka T. et al, Proc. Natl. Acad. Sci. USA, (1994) 91, 3082-3086), which comprises cloning, purification by use of Baculo-Virus and activation steps. DPP-IV was used to test the pharmaceutical efficacy of candidate inhibitors as follows. The cloned DP-IV was expressed in Baculo-Virus, which was purified by nickel column and then subjected to dialysis. The inhibitors synthesized in Examples were tested to determine the binding activity there of using a fluorescent substrate, Ac-Gly-Pro-AFC. Enzyme reactions were conducted for various concentrations of inhibitors, using 100 µM Ac-Gly-Pro-AFC at 25° C. in a buffer solution containing 50 mmol HEPES (pH 7.4), with the concentration of DP-IV being 7.1 nM. […] As the fluorescent spectrometer, Spectra MAX GeminiXS fluorescent spectrometer from Molecular Device Co. was used and the excitation frequency and emission frequency were set to 400 nm and 505 nm, respectively.

T1 sequence (P27487 whole entry): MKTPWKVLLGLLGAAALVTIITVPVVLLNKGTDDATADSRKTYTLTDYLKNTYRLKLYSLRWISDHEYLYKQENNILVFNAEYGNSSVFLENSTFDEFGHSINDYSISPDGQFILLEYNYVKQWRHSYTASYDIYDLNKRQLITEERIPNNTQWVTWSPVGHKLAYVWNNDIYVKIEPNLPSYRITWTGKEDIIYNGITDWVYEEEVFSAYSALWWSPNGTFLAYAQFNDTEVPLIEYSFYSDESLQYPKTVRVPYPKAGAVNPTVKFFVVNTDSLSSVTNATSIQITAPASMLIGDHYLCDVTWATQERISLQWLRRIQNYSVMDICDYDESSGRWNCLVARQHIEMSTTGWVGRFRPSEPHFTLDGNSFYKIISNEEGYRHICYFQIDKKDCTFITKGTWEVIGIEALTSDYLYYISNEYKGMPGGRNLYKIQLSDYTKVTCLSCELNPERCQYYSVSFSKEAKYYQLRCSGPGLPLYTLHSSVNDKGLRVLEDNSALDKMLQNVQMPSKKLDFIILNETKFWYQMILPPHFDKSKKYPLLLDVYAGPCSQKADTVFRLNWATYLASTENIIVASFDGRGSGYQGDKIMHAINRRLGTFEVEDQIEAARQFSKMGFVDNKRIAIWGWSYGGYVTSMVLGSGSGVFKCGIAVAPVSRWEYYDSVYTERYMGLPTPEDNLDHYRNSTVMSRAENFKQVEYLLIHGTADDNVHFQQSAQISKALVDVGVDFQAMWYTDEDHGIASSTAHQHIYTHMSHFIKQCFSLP

`N[C@@H](CC(=O)N1CCn2c(nnc2C(F)(F)F)C1)CN1CCOC1=O` [Ex. 1, 3-[2S-amino-4-oxo-4-(3-trifluoromethyl-5,6-dihydro-8H-[1,2,4]triazolo[4,3-a]pyrazin-7-yl)-butyl]-oxazolidin-2-one] yielded an IC50 of over 10000 nM.
Next, `CC1CN(C[C@@H](N)CC(=O)N2CCn3c(nnc3C(F)(F)F)C2)C(=O)O1` (stereo partly drawn) [Ex. 2, 3-[2S-amino-4-oxo-4-(3-trifluoromethyl-5,6-dihydro-8H-[1,2,4]triazolo[4,3-a]pyrazin-7-yl)-butyl]-5-methyl-oxazolidin-2-one]: 950 nM; `CC1CC(=O)N(C[C@@H](N)CC(=O)N2CCn3c(nnc3C(F)(F)F)C2)C1` (stereo partly drawn) [Ex. 4, 1-[2S-amino-4-oxo-4-(3-trifluoromethyl-5,6-dihydro-8H-[1,2,4]triazolo[4,3-a]pyrazin-7-yl)-butyl]-4-methyl-pyrrolidin-2-one]: 127 nM.
`N[C@@H](CC(=O)N1CCn2c(nnc2C(F)(F)F)C1)CN1CCC(F)C1=O` (stereo partly drawn) [Ex. 5, 1-[2S-amino-4-oxo-4-(3-trifluoromethyl-5,6-dihydro-8H-[1,2,4]triazolo[4,3-a]pyrazin-7-yl)-butyl]-3-fluoro-pyrrolidin-2-one] displayed an IC50 of over 10000 nM.
`N[C@@H](CC(=O)N1CCn2c(nnc2C(F)(F)F)C1)CN1CCCC1=O` [Ex. 6, 1-[2S-amino-4-oxo-4-(3-trifluoromethyl-5,6-dihydro-8H-[1,2,4]triazolo[4,3-a]pyrazin-7-yl)-butyl]-pyrrolidin-2-one] came in with an IC50 of 989 nM. That is a sub-micromolar value.
Turning to `N[C@@H](CC(=O)N1CCn2c(nnc2C(F)(F)F)C1)CN1CCCC(F)C1=O` (stereo partly drawn) [Ex. 7, 1-[2S-amino-4-oxo-4-(3-trifluoromethyl-5,6-dihydro-8H-[1,2,4]triazolo[4,3-a]pyrazin-7-yl)-butyl]-3-fluoro-piperidin-2-one], the half-maximal inhibitory concentration (IC50) was over 10000 nM.
As to `CC1CCN(C[C@@H](N)CC(=O)N2CCn3c(nnc3C(F)(F)F)C2)C1=O` (stereo partly drawn) [Ex. 8, 1-[2S-amino-4-oxo-4-(3-trifluoromethyl-5,6-dihydro-8H-[1,2,4]triazolo[4,3-a]pyrazin-7-yl)-butyl]-3-methyl-pyrrolidin-2-one], the IC50 turned out to be 4150 nM.
`CC1=CC(=O)N(C[C@@H](N)CC(=O)N2CCn3c(nnc3C(F)(F)F)C2)C1` [Ex. 9, 1-[2S-amino-4-oxo-4-(3-trifluoromethyl-5,6-dihydro-8H-[1,2,4]triazolo[4,3-a]pyrazin-7-yl)-butyl]-4-methyl-1,5-dihydro-pyrrol-2-one] came in with an IC50 of 201 nM.
On to `CC1CCN(C[C@@H](N)CC(=O)N2CCn3c(nnc3C(F)(F)F)C2)C(=O)C1` (stereo partly drawn) [Ex. 10, 1-[2S-amino-4-oxo-4-(3-trifluoromethyl-5,6-dihydro-8H-[1,2,4]triazolo[4,3-a]pyrazin-7-yl)-butyl]-4-methyl-piperidin-2-one], for which the 50% inhibitory concentration (IC50) worked out at 141 nM.
In the case of `N[C@@H](CC(=O)N1CCn2c(nnc2C(F)(F)F)C1)CN1CC(F)(F)CCC1=O` [Ex. 11, 1-[2S-amino-4-oxo-4-(3-trifluoromethyl-5,6-dihydro-8H-[1,2,4]triazolo[4,3-a]pyrazin-7-yl)-butyl]-5,5-difluoro-piperidin-2-one], 75 nM corresponded to half-maximal inhibition (IC50).
In the case of `C[C@@H]1CCC(=O)N(C[C@@H](N)CC(=O)N2CCn3c(nnc3C(F)(F)F)C2)C1` [Ex. 12, 1-[2S-amino-4-oxo-4-(3-trifluoromethyl-5,6-dihydro-8H-[1,2,4]triazolo[4,3-a]pyrazin-7-yl)-butyl]-5R-methyl-piperidin-2-one], the IC50 is 35 nM.
Take `N[C@@H](CC(=O)N1CCn2c(nnc2C(F)(F)F)C1)CN1CC(C(F)(F)F)CC1=O` (stereo partly drawn) [Ex. 13, 1-[2S-amino-4-oxo-4-(3-trifluoromethyl-5,6-dihydro-8H-[1,2,4]triazolo[4,3-a]pyrazin-7-yl)-butyl]-4-trifluoromethyl-pyrrolidin-2-one]: the IC50 turned out to be 378 nM.
Take `N[C@@H](CC(=O)N1CCn2c(nnc2C(F)(F)F)C1)CN1CCC(C(F)(F)F)CC1=O` (stereo partly drawn) [Ex. 14, 1-[2S-amino-4-oxo-4-(3-trifluoromethyl-5,6-dihydro-8H-[1,2,4]triazolo[4,3-a]pyrazin-7-yl)-butyl]-4-trifluoromethyl-piperidin-2-one]: inhibition was half-maximal at 217 nM (IC50).
Regarding `N[C@@H](CC(=O)N1CCn2c(nnc2C(F)(F)F)C1)CN1CC(C(F)(F)F)CCC1=O` (stereo partly drawn) [Ex. 15, 1-[2S-amino-4-oxo-4-(3-trifluoromethyl-5,6-dihydro-8H-[1,2,4]triazolo[4,3-a]pyrazin-7-yl)-butyl]-5-trifluoromethyl-piperidin-2-one], the IC50 came out at 2500 nM.
Molecule `CC1CN(C[C@@H](N)CC(=O)N2CCn3c(nnc3C(F)(F)F)C2)C(=O)CO1` (stereo partly drawn) [Ex. 16, 4-[2S-amino-4-oxo-4-(3-trifluoromethyl-5,6-dihydro-8H-[1,2,4]triazolo[4,3-a]pyrazin-7-yl)-butyl]-6-methyl-morpholin-3-one] returned an IC50 of 66 nM. This IC50 is about 38-fold lower than that of the molecule before.
Consider `N[C@@H](CC(=O)N1CCc2ccccc2C1)CN1CCCCC1=O` [Ex. 17, 1-[2S-amino-4-(3,4-dihydro-1H-isoquinolin-2-yl)-4-oxo-butyl]-piperidin-2-one], for which inhibition was half-maximal at 2020 nM (IC50).
`CC1CC(=O)N(C[C@@H](N)CC(=O)N2CCc3ccccc3C2)C1` (stereo partly drawn) [Ex. 18, 1-[2S-amino-4-(3,4-dihydro-1H-isoquinolin-2-yl)-4-oxo-butyl]-4-methyl-pyrrolidin-2-one] displayed an IC50 of 816 nM.
`N[C@@H](CC(=O)N1CCc2c(noc2C(F)(F)F)C1)CN1CCCCC1=O` [Ex. 19, 1-[2S-amino-4-oxo-4-(3-trifluoromethyl-4,5-dihydro-7H-isooxazolo[3,4-c]pyridin-6-yl)butyl]-piperidin-2-one] gave a half-inhibitory concentration (IC50) of 712 nM.
Next, `N[C@@H](CC(=O)N1CCc2c(C(F)(F)F)n[nH]c2C1)CN1CCCCC1=O` [Ex. 20, 1-[2S-amino-4-oxo-4-(3-trifluoromethyl-1,4,5,7-tetrahydro-pyrazolo[3,4-c]pyridin-6-yl)-butyl]-piperidin-2-one]: 268 nM.
Consider `C[C@@H]1CCC(=O)N(C[C@@H](N)CC(=O)N2CCc3c(ncnc3C(F)(F)F)C2)C1` [Ex. 21], for which the half-inhibitory concentration (IC50) stood at 24 nM.
`C[C@@H]1CCC(=O)N(C[C@@H](N)CC(=O)N2CCc3c(nc(-c4ccccc4)nc3C(F)(F)F)C2)C1` [Ex. 22, (5R)-1-{(2S)-2-amino-4-oxo-4-[2-phenyl-4-(trifluoromethyl)-5,8-dihydropyrido[3,4-d]pyrimidin-7(6H)-yl]butyl}-5-methylpiperidin-2-one]: half-maximal inhibition (IC50) was put at 49 nM.
With `C[C@H]1CN(C[C@@H](N)CC(=O)N2CCc3c(nc(-c4ccccc4)nc3C(F)(F)F)C2)C(=O)CO1` [Ex. 23], the IC50 is 130 nM.
Consider `N[C@@H](CC(=O)N1CCc2c(nc(-c3ccccc3)nc2C(F)(F)F)C1)CN1CC(F)(F)CCC1=O` [Ex. 24, 1-{(2S)-2-amino-4-oxo-4-[2-phenyl-4-(trifluoromethyl)-5,8-dihydropyrido[3,4-d]pyrimidin-7(6H)-yl]butyl}-5,5-difluoropiperidin-2-one], for which the IC50 was 66 nM.
`N[C@@H](CC(=O)N1CCc2c(nc(C3CC3)nc2C(F)(F)F)C1)CN1CC(F)(F)CCC1=O` [Ex. 25, 1-{(2S)-2-amino-4-[2-cyclopropyl-4-(trifluoromethyl)-5,8-dihydropyrido[3,4-d]pyrimidin-7(6H)-yl]-4-oxobutyl}-5,5-difluoropiperidin-2-one] yielded a concentration for half-maximal inhibition (IC50) of 9 nM. This IC50 lies about 7.3-fold lower than the previous one.
The molecule `C[C@@H]1CCC(=O)N(C[C@@H](N)CC(=O)N2CCc3c(nc(C4CC4)nc3C(F)(F)F)C2)C1` [Ex. 26, 1-{(2S)-2-amino-4-[2-cyclopropyl-4-(trifluoromethyl)-5,8-dihydropyrido[3,4-d]pyrimidin-7(6H)-yl]-4-oxobutyl}-5-methylpiperidin-2-one] returned a concentration for half-maximal inhibition (IC50) of 5 nM.
Take `C[C@H]1CN(C[C@@H](N)CC(=O)N2CCc3c(nc(C4CC4)nc3C(F)(F)F)C2)C(=O)CO1` [Ex. 27, (6S)-4-{(2S)-2-amino-4-[2-cyclopropyl-4-(trifluoromethyl)-5,8-dihydropyrido[3,4-d]pyrimidin-7(6H)-yl]-4-oxobutyl}-6-methylmorpholine-3-one]: the IC50 amounted to 28 nM.
The molecule `N[C@@H](CC(=O)N1CCc2c(cccc2C(F)(F)F)C1)CN1CC(F)(F)CCC1=O` [Ex. 28, 1-{(2S)-2-amino-4-oxo-4-[5-(trifluoromethyl)-3,4-dihydroisoquinolin-2(1H)-yl]butyl}5,5-difluoropiperidin-2-one] displayed an IC50 of 1160 nM.
Under `C[C@H]1CN(C[C@@H](N)CC(=O)N2CCc3c(cccc3C(F)(F)F)C2)C(=O)CO1` [Ex. 29, (6S)-4-{(2S)-2-amino-4-oxo-4-[5-(trifluoromethyl)-3,4-dihydroisoquinolin-2(1H)-yl]butyl}-6-methylmorpholine-3-one] stands 175 nM; under `N[C@@H](CC(=O)N1CCc2c(nc(-c3ccc(F)cc3)nc2C(F)(F)F)C1)CN1CC(F)(F)CCC1=O` [Ex. 30, 1-{(2S)-2-amino-4-[2-(4-fluorophenyl)-4-(trifluoromethyl)-5,8-dihydropyrido[3,4-d]pyrimidin-7(6H)-yl]-4-oxobutyl}-5,5-difluoropiperidin-2-one], 21 nM.
The molecule `C[C@H]1CN(C[C@@H](N)CC(=O)N2CCc3c(nc(-c4ccc(F)cc4)nc3C(F)(F)F)C2)C(=O)CO1` [Ex. 31] returned an IC50 of 25 nM.
`N[C@@H](CC(=O)N1CCc2c(nc(-c3cccc(F)c3)nc2C(F)(F)F)C1)CN1CC(F)(F)CCC1=O` [Ex. 32, 1-{(2S)-2-amino-4-[2-(3-fluorophenyl)-4-(trifluoromethyl)-5,8-dihydropyrido[3,4-d]pyrimidin-7(6H)-yl]-4-oxobutyl}-5,5-difluoropiperidin-2-one] yielded an IC50 of 199 nM.

Usually IC50 stands for the midpoint of a concentration-inhibition curve. High values mean a need for much substance, low ones inhibition by little substance.
